Results: publication PMC4247381, “Control of somatic membrane potential in nociceptive neurons and its implications for peripheral nociceptive transmission” (Pain, 2014)
Read-outs that look alike come from different tables or passages of the source.

Columns and labels:
Cav3.2 = biological target: T1, Cav3.2 (Homo sapiens, UniProt O95180); test: whole-cell patch clamp of recombinant human Cav3.[…] in HEK293 cells (enhancer); type: cell-based
T1 construct: gene CACNA1H

Kv7.2/Kv7.3 = biological target: T2, Kv7.2/Kv7.3 (Homo sapiens, UniProt O43525+O43526); test: Rb+ efflux assay and whole-cell patch clamp in CHO cells expressing Kv7.[…]/Kv7.[…] (activator); type: cell-based
T2 construct: gene KCNQ2; with Kv7.3 (KCNQ3)
T2 sequence (O43526 whole entry): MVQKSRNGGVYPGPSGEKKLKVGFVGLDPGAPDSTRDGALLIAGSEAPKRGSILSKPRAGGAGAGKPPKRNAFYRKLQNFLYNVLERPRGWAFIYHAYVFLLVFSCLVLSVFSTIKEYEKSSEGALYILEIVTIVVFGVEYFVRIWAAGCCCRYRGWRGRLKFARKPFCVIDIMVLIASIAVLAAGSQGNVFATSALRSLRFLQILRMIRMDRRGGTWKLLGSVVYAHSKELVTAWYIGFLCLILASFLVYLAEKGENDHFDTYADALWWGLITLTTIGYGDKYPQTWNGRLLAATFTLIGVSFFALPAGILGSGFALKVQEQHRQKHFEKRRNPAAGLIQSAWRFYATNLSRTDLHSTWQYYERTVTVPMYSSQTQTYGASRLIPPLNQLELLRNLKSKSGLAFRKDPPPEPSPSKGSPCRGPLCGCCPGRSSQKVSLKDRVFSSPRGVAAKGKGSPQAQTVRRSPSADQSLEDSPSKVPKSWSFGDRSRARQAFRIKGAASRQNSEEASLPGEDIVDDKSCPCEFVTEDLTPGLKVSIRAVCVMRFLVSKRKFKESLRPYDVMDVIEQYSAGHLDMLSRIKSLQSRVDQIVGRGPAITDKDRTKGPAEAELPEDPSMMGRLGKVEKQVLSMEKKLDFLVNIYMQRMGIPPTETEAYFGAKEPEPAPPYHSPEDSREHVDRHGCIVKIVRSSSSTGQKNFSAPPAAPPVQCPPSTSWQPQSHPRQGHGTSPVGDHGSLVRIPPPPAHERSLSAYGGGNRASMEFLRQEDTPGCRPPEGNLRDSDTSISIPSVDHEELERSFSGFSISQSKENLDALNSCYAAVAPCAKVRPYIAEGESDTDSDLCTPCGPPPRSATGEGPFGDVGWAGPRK
T2 sequence (O43525 whole entry): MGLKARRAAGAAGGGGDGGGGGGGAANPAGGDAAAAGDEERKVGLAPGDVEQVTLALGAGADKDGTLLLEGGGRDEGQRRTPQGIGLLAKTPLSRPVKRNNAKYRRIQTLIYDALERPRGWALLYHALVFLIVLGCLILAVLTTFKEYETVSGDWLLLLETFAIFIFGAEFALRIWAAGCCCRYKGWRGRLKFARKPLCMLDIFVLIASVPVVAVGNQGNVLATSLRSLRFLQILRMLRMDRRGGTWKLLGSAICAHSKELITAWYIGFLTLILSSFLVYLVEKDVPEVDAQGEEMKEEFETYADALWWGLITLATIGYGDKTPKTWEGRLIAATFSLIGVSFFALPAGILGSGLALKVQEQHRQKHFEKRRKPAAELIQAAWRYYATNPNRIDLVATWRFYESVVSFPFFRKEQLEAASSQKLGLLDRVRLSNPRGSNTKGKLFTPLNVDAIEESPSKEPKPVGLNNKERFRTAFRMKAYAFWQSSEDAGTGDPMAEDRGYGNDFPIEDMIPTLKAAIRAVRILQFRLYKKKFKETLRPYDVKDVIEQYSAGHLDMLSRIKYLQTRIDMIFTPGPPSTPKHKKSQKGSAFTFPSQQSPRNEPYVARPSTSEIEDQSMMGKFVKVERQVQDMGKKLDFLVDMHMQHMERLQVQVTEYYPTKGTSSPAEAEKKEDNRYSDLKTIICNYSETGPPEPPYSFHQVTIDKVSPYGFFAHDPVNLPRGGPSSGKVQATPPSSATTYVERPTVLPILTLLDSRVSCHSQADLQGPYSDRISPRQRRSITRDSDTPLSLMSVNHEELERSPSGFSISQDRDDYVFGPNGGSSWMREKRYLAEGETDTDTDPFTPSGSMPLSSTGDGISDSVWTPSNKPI

T1 sequence (O95180 whole entry): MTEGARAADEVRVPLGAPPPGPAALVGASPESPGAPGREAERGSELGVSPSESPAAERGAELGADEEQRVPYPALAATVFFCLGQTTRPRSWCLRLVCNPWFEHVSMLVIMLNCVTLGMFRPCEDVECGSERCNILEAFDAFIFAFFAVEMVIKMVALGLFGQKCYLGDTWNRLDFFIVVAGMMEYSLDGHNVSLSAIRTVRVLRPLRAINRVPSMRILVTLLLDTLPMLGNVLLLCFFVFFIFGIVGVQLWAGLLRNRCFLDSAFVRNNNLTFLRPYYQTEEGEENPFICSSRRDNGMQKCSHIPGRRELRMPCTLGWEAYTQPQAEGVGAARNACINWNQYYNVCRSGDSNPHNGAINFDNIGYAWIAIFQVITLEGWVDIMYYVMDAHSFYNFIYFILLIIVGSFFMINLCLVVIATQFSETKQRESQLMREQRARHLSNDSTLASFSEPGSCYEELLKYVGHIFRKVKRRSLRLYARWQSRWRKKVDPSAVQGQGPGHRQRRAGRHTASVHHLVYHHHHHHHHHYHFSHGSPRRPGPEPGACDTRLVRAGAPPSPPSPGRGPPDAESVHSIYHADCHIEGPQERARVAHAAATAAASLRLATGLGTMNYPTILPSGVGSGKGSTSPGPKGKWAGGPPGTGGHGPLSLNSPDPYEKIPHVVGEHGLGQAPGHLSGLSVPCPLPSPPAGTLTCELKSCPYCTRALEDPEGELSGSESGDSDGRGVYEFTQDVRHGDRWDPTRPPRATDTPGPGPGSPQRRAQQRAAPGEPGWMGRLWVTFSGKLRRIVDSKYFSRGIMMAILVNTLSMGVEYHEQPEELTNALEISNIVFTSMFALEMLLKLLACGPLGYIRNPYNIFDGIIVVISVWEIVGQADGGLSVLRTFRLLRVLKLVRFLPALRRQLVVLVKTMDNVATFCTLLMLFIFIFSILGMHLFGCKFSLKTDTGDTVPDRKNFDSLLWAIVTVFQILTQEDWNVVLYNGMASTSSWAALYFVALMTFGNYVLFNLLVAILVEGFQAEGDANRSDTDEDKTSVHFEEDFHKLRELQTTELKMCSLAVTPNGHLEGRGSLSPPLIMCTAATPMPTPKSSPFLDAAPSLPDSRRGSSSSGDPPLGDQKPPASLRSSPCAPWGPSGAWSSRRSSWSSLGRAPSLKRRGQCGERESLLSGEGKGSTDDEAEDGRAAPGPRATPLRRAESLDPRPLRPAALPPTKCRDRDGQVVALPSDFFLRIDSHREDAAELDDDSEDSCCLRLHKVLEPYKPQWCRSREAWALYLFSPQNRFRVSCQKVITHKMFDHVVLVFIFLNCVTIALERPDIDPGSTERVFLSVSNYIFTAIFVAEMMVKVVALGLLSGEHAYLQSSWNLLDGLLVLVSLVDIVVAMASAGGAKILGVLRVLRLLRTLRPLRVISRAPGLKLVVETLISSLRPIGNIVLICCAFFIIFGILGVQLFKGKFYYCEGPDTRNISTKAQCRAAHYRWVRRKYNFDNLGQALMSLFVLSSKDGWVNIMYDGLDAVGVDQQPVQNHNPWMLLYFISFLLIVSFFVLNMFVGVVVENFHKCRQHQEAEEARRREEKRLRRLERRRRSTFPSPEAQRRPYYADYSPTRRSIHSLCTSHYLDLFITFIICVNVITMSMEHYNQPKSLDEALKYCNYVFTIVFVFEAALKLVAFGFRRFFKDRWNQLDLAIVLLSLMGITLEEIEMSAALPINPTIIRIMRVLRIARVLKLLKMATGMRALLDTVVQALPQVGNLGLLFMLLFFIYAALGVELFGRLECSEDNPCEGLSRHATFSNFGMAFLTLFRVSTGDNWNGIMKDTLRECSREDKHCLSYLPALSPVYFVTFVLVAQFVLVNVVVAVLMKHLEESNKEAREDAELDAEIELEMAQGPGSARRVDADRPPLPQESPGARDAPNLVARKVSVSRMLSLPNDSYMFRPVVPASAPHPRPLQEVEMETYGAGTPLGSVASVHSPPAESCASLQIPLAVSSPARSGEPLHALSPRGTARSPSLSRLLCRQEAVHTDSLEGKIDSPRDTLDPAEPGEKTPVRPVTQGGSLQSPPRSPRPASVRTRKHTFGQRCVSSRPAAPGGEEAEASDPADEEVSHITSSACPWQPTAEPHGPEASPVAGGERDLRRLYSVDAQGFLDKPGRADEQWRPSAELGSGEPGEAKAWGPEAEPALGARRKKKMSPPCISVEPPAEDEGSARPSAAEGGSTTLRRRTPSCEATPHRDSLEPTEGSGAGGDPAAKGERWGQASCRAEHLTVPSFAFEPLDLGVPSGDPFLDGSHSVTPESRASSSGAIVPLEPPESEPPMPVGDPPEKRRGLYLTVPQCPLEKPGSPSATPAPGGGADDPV

O=C1N=C2C=CC=CN2C12Cc1ccccc1C2 [ST101, spiro[imidazo[1,2-a]pyridine-3,2-indan]-2(3H)-one]
EC50 (Cav3.2): 0.12 ± 0.04 nM

Oc1c(Cl)cc(Cl)cc1Sc1cc(Cl)cc(Cl)c1O [BITH, Bithionol]
EC50 (Kv7.2/Kv7.3; read-out: EC50): 4900 ± 1080 nM

CCOC(=O)Nc1ccc(NCc2ccc(F)cc2)cc1N [RTG, Retigabine]
EC50 (Kv7.2/Kv7.3): 700 ± 90 nM
